# Source: patent US10590129B2 (Incozen Therapeutics Pvt. Ltd., priority 2010, dated 2020)
# pIC50: −log10 of the molar value.
# Assays:
# MKN-45 cells [1] = test: Inhibition of MKN-45 proliferation (MTT); format: cell-based, human; conditions: for Inhibition (% Inhibition of MKN-45 proliferation) / inhibition at 0.1 µM: 0.1 μM
# Method in brief: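 Viability measured by MTT dye reduction on day 5 after compound addition on day 2 to MKN-45 gastric adenocarcinoma cells (high Met expression) seeded on day 1 in complete medium.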
# c-Met [2] = biological target: T1, c-Met (Homo sapiens, UniProt P08581); test: Inhibition of c-Met kinase phosphorylation in MKN-45 cells (cell based ELISA); design: endogenous in cells; host or cells: MKN-45; conditions: 1 h
# T1 sequence (P08581 25-1390): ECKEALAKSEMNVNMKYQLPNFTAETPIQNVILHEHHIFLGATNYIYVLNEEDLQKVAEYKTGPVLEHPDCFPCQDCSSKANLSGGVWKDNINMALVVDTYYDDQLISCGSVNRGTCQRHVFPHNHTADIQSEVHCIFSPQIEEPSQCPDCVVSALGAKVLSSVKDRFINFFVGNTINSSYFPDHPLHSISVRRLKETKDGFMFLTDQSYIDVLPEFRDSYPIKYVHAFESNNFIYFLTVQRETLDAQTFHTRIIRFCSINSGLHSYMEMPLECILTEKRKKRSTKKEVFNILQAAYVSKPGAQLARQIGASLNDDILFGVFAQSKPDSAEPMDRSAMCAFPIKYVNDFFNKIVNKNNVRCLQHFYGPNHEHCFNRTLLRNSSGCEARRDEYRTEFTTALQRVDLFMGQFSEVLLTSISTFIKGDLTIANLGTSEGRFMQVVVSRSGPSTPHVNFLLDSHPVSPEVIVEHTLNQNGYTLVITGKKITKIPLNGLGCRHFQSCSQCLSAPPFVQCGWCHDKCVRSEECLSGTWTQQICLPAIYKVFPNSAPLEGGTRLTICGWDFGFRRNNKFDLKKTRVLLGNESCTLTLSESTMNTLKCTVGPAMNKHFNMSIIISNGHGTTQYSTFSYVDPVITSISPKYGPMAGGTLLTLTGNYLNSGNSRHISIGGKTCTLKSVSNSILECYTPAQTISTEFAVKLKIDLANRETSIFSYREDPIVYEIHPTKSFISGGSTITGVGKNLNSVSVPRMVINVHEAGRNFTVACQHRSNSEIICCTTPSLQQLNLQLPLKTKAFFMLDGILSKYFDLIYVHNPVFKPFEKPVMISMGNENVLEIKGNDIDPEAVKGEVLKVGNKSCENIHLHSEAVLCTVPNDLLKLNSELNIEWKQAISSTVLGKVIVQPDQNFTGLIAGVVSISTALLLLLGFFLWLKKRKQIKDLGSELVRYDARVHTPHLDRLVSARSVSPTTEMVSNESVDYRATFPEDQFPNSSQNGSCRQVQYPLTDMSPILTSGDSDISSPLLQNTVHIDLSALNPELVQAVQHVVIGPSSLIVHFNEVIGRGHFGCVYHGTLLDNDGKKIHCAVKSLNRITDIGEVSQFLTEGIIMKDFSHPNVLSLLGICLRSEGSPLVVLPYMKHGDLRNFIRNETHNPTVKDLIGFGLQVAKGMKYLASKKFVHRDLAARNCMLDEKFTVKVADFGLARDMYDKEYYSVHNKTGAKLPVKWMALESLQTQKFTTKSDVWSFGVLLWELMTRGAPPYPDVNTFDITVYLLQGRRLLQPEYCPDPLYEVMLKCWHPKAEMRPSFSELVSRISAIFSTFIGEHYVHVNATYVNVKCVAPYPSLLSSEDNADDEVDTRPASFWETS
# Protocol: Inhibition of c-Met Kinase Phosphorylation in MKN-45 Cells:
# MKN45 cells are a prototype of “c-Met addicted” cells having constitutively activated c-Met kinase similar to that observed in sub-sects of gastric or hepatocellular cancer patients with dysregulated c-Met kinase activity. Inhibition of Met phosphorylation was determined using a cell based ELISA assay according to the following schedule:
# Day 1: MKN-45 cells were plated in 96-well plates in complete growth medium.
# Day 2: Inhibitors at the desired concentration were added to the plates and incubated for 1 h and lysed subsequently.
# Lysates were transferred to NUNC Maxisorp plates coated with anti-cMet receptor antibody. Phopho-tyrosine mAb and HRP-lined anti-mouse IgG were used as primary and secondary antibodies respectively. Optical density was measured on a microplate reader (BMG Labtech., Germany) at […]. Inhibition of c-Met phosphorylation in this cell line indicates a therapeutic potential for test compounds in patients diagnosed with cancers caused by aberrant c-Met kinase signalling.
# Met kinase [3] = biological target: T2, Met kinase (Homo sapiens, UniProt P08581); test: MET kinase assay (colorimetric determination of c-Met kinase activity, HTScan Met Kinase Assay Kit); format: biochemical; design: purchased Cell Signalling Technology, Beverly, Mass; conditions: for pIC50: c-Met kinase
# T2 sequence (P08581 25-1390): as above
# Text: 1. MET Kinase Assay Protocol:
# Colorimetric Determination of c-Met Kinase Activity
# The receptor tyrosine kinase c-Met is a heterodimeric transmembrane glycoprotein involved in several cellular processes that aid in tumor progression. Phosphorylation of the tyrosine residues in the c-Met kinase domain is critical for its activity and the resulting down-stream effects. The colorimetric assay allows detection of the phosphorylated form of a biotinylated peptide upon activation of human recombinant Met kinase.
# MET Kinase Assay Protocol:
# c-Met Kinase activity shall be determined using an HTScan® Met Kinase Assay Kit (Cell Signalling Technology, Beverly, Mass.) with modifications. All incubations are carried out at room temperature. Briefly, 12.5 μl of a 4× reaction cocktail (DTT/Kinase buffer containing appropriate quantity of human Met kinase) is added to each well of a 96-well plate containing 12.5 μl pre-diluted compound of interest and incubated for 5 minutes. After the initial incubation, 25 μl/well of 2×ATP/biotinylated peptide is added and incubated for an additional 30 minutes. The reaction is terminated by the addition of 50 μl/well stop buffer (50 mM EDTA, pH 8.0). The reaction mixture (25 μl/well) is then transferred to a streptavidin coated plate (Perkin Elmer, Cat#4009-0010) containing 75 μl dH2O and incubated for 60 minutes. The plate is washed with 200 μl/well wash buffer (1×PBS, 0.05% Tween-20). After washing, 100 μl/well phospho-tyrosine mAb (1:1000 in wash buffer containing 1% BSA) is added and incubated for 60 minutes. After another round of washes, 100 μl/well europium labelled anti-mouse IgG (1:500 in wash buffer containing 1% BSA) is added and incubated for an additional 30 minutes. Following additional washes, 100 μl/well Delfia® enhancement solution (Perkin Elmer, Cat#1244-105) is added and incubated for 45 minutes. Florescence is measured on a microplate reader (BMG Labtech., Germany) at 340 nm (excitation) and 615 nm (emission) for calculating % inhibition. Data generated can be analyzed further using Graphpad Prism (Graphpad software, San Diego Calif.) for determination of IC50.
# c-Met [4] = biological target: T1, c-Met; test: Inhibition of c-Met kinase phosphorylation in NCI-H441 cells (cell based ELISA); design: endogenous in cells; host or cells: NCI-H441; conditions: 1 h
# Protocol: Inhibition of c-Met Kinase Phosphorylation in NCI—H441 Cells:
# Inhibition of Met phosphorylation was determined using a cell based ELISA assay according to the following schedule:
# Day 1: NCI—H441 cells were plated in 96-well plates in complete growth medium.
# Day 2: Inhibitors at the desired concentration were added to the plates, incubated for 1 h and lysed subsequently. Lysates were transferred to NUNC Maxisorp plates coated with anti-cMet receptor antibody. Phopho-tyrosine mAb and HRP-lined anti-mouse IgG were used as primary and secondary antibodies respectively. Optical density was measured on a microplate reader (BMG Labtech., Germany) at […].
# Akt [5] = test: Inhibition of Akt phosphorylation in MKN-45 cells (western blot, pAkt S473); format: cell-based; conditions: Homo sapiens
# Protocol: (§1) Inhibition of Akt Phosphorylation in MKN-45 or NCI-11441 Cells:
# (§2) Akt is a serine-threonine kinase and a downstream marker regulated by c-Met kinase via the PI3K pathway. Once phosphorylated, Akt regulates several end processes including cell survival and growth. Cells were treated with 0−1000 nM of test compounds, lysed, and the proteins separated on a 10% SDS-PAGE. Following separation, proteins were transferred onto a nitrocellulose membrane and detected by chemiluminescence after incubation with pAkt S473 mAb (primary) and rabbit anti-mouse Ab (secondary). Intensity of the bands was determined using ImageJ 1.42q (NIH, USA) and normalized to Actin (loading control).
# Akt [6] = test: Inhibition of Akt phosphorylation in NCI-H441 cells (western blot, pAkt S473); format: cell-based; conditions: Homo sapiens
# Protocol: as §1, §2
# MKN-45 cells [7] = test: Induction of apoptosis in MKN-45 cells (caspase-3 activity); format: cell-based, human; conditions: @ 3 μM, 24 h, caspase-3, percent of maximum response
# Protocol: 6. Induction of Apoptosis in MKN-45 Cells:
# Induction of Caspase 3 was measured fluorimetrically. Cells were incubated with desired concentrations of the compound for 24 h. After incubation, cells were harvested and counted. An equal number of viable cells per well (0.3×10^6 cells) were used for determination of caspase-3 activity. Increase in apoptosis manifested by an elevation in caspase-3 levels was determined using a Caspase-3 kit from Millipore. Data are expressed as a percent of the maximum response (100%).
# Met kinase [8] = biological target: T2, Met kinase; test: Inhibition of HGF-induced Met phosphorylation in MDA-MB-231 cells; format: cell-based; design: endogenous in cells; host or cells: MDA-MB-231; conditions: HGF 50 ng/ml, read-out: HGF stimulated Met phosphorylation (IC50)
# [9] = Homo sapiens, MKN-45, MKN-45 proliferation
SMILES,GI50 (MKN-45 cells [1]; [9]),melting point,pIC50 (c-Met [2]),inhibition at 1 µM (Met kinase [3]),pIC50 (Met kinase [3]),pIC50 (c-Met [4]),IC50 (Akt [5]),IC50 (Akt [6]),Apoptosis in MKN-45 cells (percentage induction) (MKN-45 cells [7]),pIC50 (Met kinase [8]),Inhibition (% Inhibition of MKN-45 proliferation) (MKN-45 cells [1]; MKN-45 proliferation),inhibition at 0.1 µM (MKN-45 cells [1]; [9]),"% inhibition @ 1 uM (MKN-45 cells [1]; MKN-45 proliferation, 1 μM)","inhibition at 1 µM (MKN-45 cells [1]; Homo sapiens, MKN-45, MKN-45 proliferation, 1 μM)"
"CNC(=O)c1ccc(-c2ccc3nnn(Cc4ccc5ncccc5c4)c3n2)cc1 [Ex 9, N-Methyl-4-(3-(quinolin-6-ylmethyl)-3H-[1,2,3]triazolo[4,5-b]pyridin-5-yl)benzamide]",50 to 150 nM,220 to 222 °C,6.82 to 7.30,75 to 100%,7.00 to 7.30,–,–,–,–,–,–,–,–,–
"CNC(=O)c1ccc(-c2ccc3nnn(Cc4ccc5ncccc5c4)c3n2)cc1F [Ex 14, 2-Fluoro-N-methyl-4-(3-(quinolin-6-ylmethyl)-3H-[1,2,3]triazolo[4,5-b]pyridin-5-yl)benzamide]",50 to 150 nM,212 to 214 °C,6.82 to 7.30,75 to 100%,6.60 to 7.00,7.30 to 8.00,–,–,–,–,–,–,–,–
"NC(=O)c1ccc(-c2ccc3nnn(Cc4ccc5ncccc5c4)c3n2)cc1F [Ex 15, 2-Fluoro-4-(3-(quinolin-6-ylmethyl)-3H-[1,2,3]triazolo[4,5-b]pyridin-5-yl)benzamide]",50 to 150 nM,198 to 200 °C,6.82 to 7.30,75 to 100%,7.00 to 7.30,7.30 to 8.00,100 to 200 nM,≤ 25 nM,A (A = >50 to 100%),≥ 8.00,–,–,–,–
"OCc1ccc(-c2ccc3nnn(Cc4ccc5ncccc5c4)c3n2)cc1F [Ex 16, (2-Fluoro-4-(3-(quinolin-6-ylmethyl)-3H-[1,2,3]triazolo[4,5-b]pyridin-5-yl)phenyl)methanol]",≤ 50 nM,202 to 204 °C,≥ 7.30,75 to 100%,7.00 to 7.30,–,–,–,–,–,–,–,–,–
"O=C(Nc1nc[nH]n1)c1ccc(-c2ccc3nnn(Cc4ccc5ncccc5c4)c3n2)cc1F [Ex 52, 2-Fluoro-4-(3-(quinolin-6-ylmethyl)-3H-[1,2,3]triazolo[4,5-b]pyridin-5-yl)-N-(1H-1,2,4-triazol-3-yl)benzamide]",≤ 50 nM,265 to 267 °C,≥ 7.30,75 to 100%,≥ 7.30,≥ 8.00,50 to 100 nM,≤ 25 nM,A (A = >50 to 100%),–,D (D = <25%),–,–,–
"NC(=O)c1ccc(-c2ccc3nnn(Cc4ccc5ncccc5c4)c3n2)cc1Cl [Ex 108, 2-Chloro-4-(3-(quinolin-6-ylmethyl)-3H-[1,2,3]triazolo[4,5-b]pyridin-5-yl)benzamide]",≤ 50 nM,212 to 215 °C,≥ 7.30,75 to 100%,≥ 7.30,≥ 8.00,≤ 25 nM,≤ 25 nM,A (A = >50 to 100%),≥ 8.00,–,50 to 75%,–,–
"CCNC(=O)c1ccc(-c2ccc3nnn(Cc4ccc5ncccc5c4)c3n2)cc1Cl [Ex 119, 2-Chloro-N-ethyl-4-(3-(quinolin-6-ylmethyl)-3H-[1,2,3]triazolo[4,5-b]pyridin-5-yl)benzamide]",≤ 50 nM,187 to 190 °C,≥ 7.30,75 to 100%,≥ 7.30,≥ 8.00,≤ 25 nM,≤ 25 nM,A (A = >50 to 100%),≥ 8.00,A (A = ≥75 to 100%),–,–,–
"NC(=O)c1c(F)cc(-c2ccc3nnn(Cc4ccc5ncccc5c4)c3n2)cc1F [Ex 130, 2,6-Difluoro-4-(3-(quinolin-6-ylmethyl)-3H-[1,2,3]triazolo[4,5-b]pyridin-5-yl)benzamide]",≤ 50 nM,–,≥ 7.30,75 to 100%,≥ 7.30,–,50 to 100 nM,25 to 50 nM,B (B = ≤50),≥ 8.00,A (A = ≥75 to 100%),–,–,–
"NC(=O)c1ccc(-c2ccc3nnn(Cc4cc5cccnc5cc4F)c3n2)cc1Cl [Ex 134, 2-Chloro-4-(3-((7-fluoroquinolin-6-yl)methyl)-3H-[1,2,3]triazolo[4,5-b]pyridin-5-yl)benzamide]",≤ 50 nM,–,≥ 7.30,75 to 100%,≥ 7.30,≥ 8.00,≤ 25 nM,≤ 25 nM,A (A = >50 to 100%),7.30 to 8.00,–,50 to 75%,–,–
"NC(=O)c1ccc(-c2ccc3nnn(Cc4cc5cccnc5cc4F)c3n2)cc1F [Ex 137, 2-Fluoro-4-(3-((7-fluoroquinolin-6-yl)methyl)-3H-[1,2,3]triazolo[4,5-b]pyridin-5-yl)benzamide]",≤ 50 nM,–,≥ 7.30,75 to 100%,≥ 7.30,≥ 8.00,–,–,–,–,–,75 to 100%,B (B = ≥50-<75%),–
"Cl.NC(=O)c1c(F)cc(-c2ccc3nnn(Cc4ccc5ncccc5c4)c3n2)cc1F [Ex 139, 2,6-Difluoro-4-(3-(quinolin-6-ylmethyl)-3H-[1,2,3]triazolo[4,5-b]pyridin-5-yl)benzamide hydrochloride]",–,–,–,–,–,≥ 8.00,–,–,–,–,B (B = ≥50-<75%),–,–,< 25%
"OCCn1cc(-c2ccc3nnn(Cc4ccc5ncccc5c4)c3n2)cn1 [Ex 146, 2-(4-(3-(Quinolin-6-ylmethyl)-3H-[1,2,3]triazolo[4,5-b]pyridin-5-yl)-1H-pyrazol-1-yl)ethanol]",50 to 150 nM,–,6.82 to 7.30,–,–,7.00 to 7.30,–,25 to 50 nM,–,–,–,–,–,–
